This is an account of results in patent US10912767B2, “Anthracycline prodrugs and methods of making and using the same” (THE REGENTS OF THE UNIVERSITY OF COLORADO, priority 2015, dated 2021).

The subject of data set [1] is orthotopic MDA-MB-231 human breast tumor xenografts. The data set is described as follows: In vivo mouse efficacy, tumor bioluminescence. Set-up: species or system nude mice. To be noted: 4 mg/kg dox equivalent iv + 18-FDG ip, weekly x6. The procedure:
(§1) For reconstitution for intravenous injection into mice, dry photodoxazolidine R═H (23 mg) was dissolved in 785 μL of DMSO for a final concentration of 34.5 mM, labeled “Drug Stock,” and stored dark at −20° C. Shortly before injection, the Drug Stock was thawed and 20-50 μL was transferred to a new tube. To this tube, 6 volumes (relative to the Drug Stock volume) of PEG-400 and 4 volumes of propylene glycol (PG) were added and the solution thoroughly mixed by vortexing. Immediately prior to injection, 9 volumes of saline (0.9% NaCl) was added to the DMSO/PEG/PG solution of photodoxazolidine and mixed by vortexing. […] Therefore, this formulation was used as prepared. This protocol produces a final formulation of 5% DMSO, 30% PEG-400, 20% PG, 45% saline. A standard injection of 100 μL of this formulation delivers 4 mg dox equivalent/kg body weight for a mouse weighing 0.025 kg.
(§2) Luciferase-positive MDA-MB-231 cells were maintained in MEM culture medium supplemented with 10% heat inactivated fetal bovine serum and 2% penicillin/streptomycin. Prior to injection, typsinized cell populations were counted with a Z1 Coulter Particle counter, centrifuged, and resuspended in Hank's Balanced Salt Solution (HBSS) at a concentration of 4.0×10^7 cells/mL. […] Body weight and tumor growth were measured regularly. Tumor growth was measured optically from the bioluminescence signal from injection of luciferin. […]

A short description of data set [2]: In vivo body weight change as indication of toxicity. Details: species or system nude mice. To be noted: 4 mg/kg dox equivalent iv weekly x6; photodoxazolidine with 18-FDG ip. Here is the method:
as §1, §2

The nature of data set [3]: Quantum yield of photocleavage, He-Cd laser 325 nm, HPLC. Format: physicochemical. As to conditions: 325 nm. Here is the method: Initially, measurement of the quantum yield of photodoxazolidine R═H was done in a fully-absorbing solution of photoactive drug in a solution of 90% dimethylacetamide (DMA), 10% water in a 1×1 cm quartz cuvette equipped with a small magnetic stir bar. A stock of photodoxazolidine in DMA was diluted in 9:1 DMA:H2O to a final concentration of 373 μM in a final volume of 3.380 mL. […] The cuvette was placed into the path of an Omnichrome He-Cd laser (single-window power: 10.75 mW at 325 nm using a Scientech laser power meter). The solution was mixed by the stir bar, which was agitated with a magnetic stir plate placed vertically next to the cuvette. Aliquots of 20 μL were removed at times between 0 and 62 min of irradiation and those aliquots were analyzed by HPLC (method 2) for the ratio of dox to photodoxazolidine. The quantum yield was calculated from the ratio of molecules of doxorubicin (dox) formed to photons absorbed.
To allow for better comparison between the quantum yield of photocleavage of photodoxazolidine with the quantum yield for azido-PEG-photodoxazolidine, the measurement was retaken with 50% acetonitrile in water as a solvent. […] Photodoxazolidine (in DMF) was diluted with 30 mL of 50% acetonitrile to a final concentration of 104 μM. The solution was confirmed to be fully absorbing by monitoring the laser power exiting the cell throughout the course of the experiment, which never deviated from 0 mW. As above, the contents of the cell were mixed with a small magnetic stir bar. Aliquots of 50 μL were removed at various times and analyzed as described above. The calculated quantum yield in this solvent system was identical to that measured from the […] system used above.
Concentration of azido-PEG-photodoxazolidine was determined via absorbance (λ=480 nm, ε=11500 M^−1 cm^−1). A sample ([…]) was dissolved in 1 mL of ACN and transferred to a cuvette. A 12.4 mW Omnichrome HeCd was used to irradiate the solution for 30 min at 325 nm. Aliquots of 10 μL were collected at different times and analyzed by HPLC to determine the % Dox in relation to that of azido-PEG-photodoxazolidine. In calculating quantum yield: power (without cuvette)=12.4 mW, (with cuvette)=10.7 mW, incident light=11.55 mW; energy=0.462 J, 7.55×1017 photons; t=40 sec when % Dox=9.2. Experiments were performed in triplicate.
Azido-PEG-photodoxazolidine was irradiated with a 12.4 mW monochromatic laser at 325 nm for 30 min. Aliquots were collected throughout to determine the amount of azido-PEG-photodoxazolidine in relation to released doxorubicin, which was quantified by HPLC. […] The average of triplicate quantum yield experiments was 0.025. This value is in the low end of the quantum yield range, yet is beneficial because it signifies that UV must be applied for longer durations prior to release of the cytotoxic agent. This makes administration of this photo-activated prodrug safer, and its synthesis more practical.

Regarding `COc1cc(COC(=O)N2COC3C(C)OC(OC4CC(O)(C(=O)CO)Cc5c(O)c6c(c(O)c54)C(=O)c4c(OC)cccc4C6=O)CC32)c([N+](=O)[O-])cc1OC` (stereo not shown) [Photodoxazolidine], the tumor bioluminescence result in data set [1] was “significant reductions in tumor bioluminescence”. Also, the body weight change entry in data set [2] is recorded as “no significant change”. For the same compound, the quantum yield result is “identical” in data set [3] (50% acetonitrile in water, vs first solvent system) and 0.002 in data set [3] (90% dimethylacetamide, 10% water).
